Experimental data published in PubChem BioAssay (NCI).
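Five compound concentrations were applied to cells in 96-well plates for 48 hours; endpoints were derived by simple linear interpolation of the resulting dose-response curve. TGI denotes the concentration required for complete inhibition of growth.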

Key:
Test in all cases: growth of human tumour cells (NCI), 48 h
HCT-15 colon = test system: HCT-15 colon
HT29 colon = test system: HT29 colon
OVCAR-5 ovarian = test system: OVCAR-5 ovarian
RPMI-8226 leukemia = test system: RPMI-8226 leukemia
UACC-62 melanoma = test system: UACC-62 melanoma
T-47D breast = test system: T-47D breast
NCI/ADR-RES ovarian = test system: NCI/ADR-RES ovarian
SNB-19 CNS = test system: SNB-19 CNS
HOP-62 NSCLC = test system: HOP-62 NSCLC
EKVX NSCLC = test system: EKVX NSCLC
DU-145 prostate = test system: DU-145 prostate
SF-539 CNS = test system: SF-539 CNS
SK-MEL-2 melanoma = test system: SK-MEL-2 melanoma
MALME-3M melanoma = test system: MALME-3M melanoma

| SMILES | TGI (HCT-15 colon) [µM] | TGI (HT29 colon) [µM] | TGI (OVCAR-5 ovarian) [µM] | TGI (RPMI-8226 leukemia) [µM] | TGI (UACC-62 melanoma) [µM] | TGI (T-47D breast) [µM] | TGI (NCI/ADR-RES ovarian) [µM] | TGI (SNB-19 CNS) [µM] | TGI (HOP-62 NSCLC) [µM] | TGI (EKVX NSCLC) [µM] | TGI (DU-145 prostate) [µM] | TGI (SF-539 CNS) [µM] | TGI (SK-MEL-2 melanoma) [µM] | TGI (MALME-3M melanoma) [µM] |
| --- | --- | --- | --- | --- | --- | --- | --- | --- | --- | --- | --- | --- | --- | --- |
| C1CC[C@H]2SSC3CCCC[C@H]3SSC2C1 (stereo partly drawn) | > 100 | > 100 | > 100 | > 100 | > 100 | > 100 | > 100 | > 100 | > 100 | > 100 | > 100 | > 100 | – | – |
| O=c1cn[nH]c(=S)n1/N=C/c1c[nH]c2ccccc12 | > 100 | > 100 | > 100 | > 100 | > 100 | – | > 100 | > 100 | > 100 | > 100 | > 100 | > 100 | > 100 | > 100 |
| COc1cc(C2C(Cl)C(=O)N2NC(=O)c2ccc(N)cc2)cc(Br)c1O (stereo not drawn) | 28.8 | 41.9 | 38.8 | 51.5 | 30.4 | – | – | 24 | 28.9 | 31 | – | 35.2 | 32.3 | 27.5 |
| C/C(=N\Nc1nc2cccnc2s1)c1ccccn1 | 21.5 | – | > 64.4 | > 100 | – | – | 0.06 | > 87 | – | 5.73 | > 100 | 20.6 | > 34.6 | 42 |
| C=C[C@]1(C)CCC2=C(CCC3C2(C)CCC[C@@]3(C)COC(C)=O)C1 (stereo partly drawn) | 30.8 | 33.9 | 32.8 | 35.6 | 45.8 | – | – | 31.9 | 40.2 | 36.8 | – | 37.9 | 29 | 62.4 |
| CC(C)(C)C1=CC(=C2C(=O)C(=O)c3ccccc3C2=O)C=C(C(C)(C)C)C1=O | > 100 | > 100 | > 100 | 86.9 | > 100 | – | – | > 100 | > 100 | > 100 | – | > 100 | > 100 | 58.7 |
| CC1CCC2(CC1)NC1=C(CC(C)CC1)C1=C2CC(C)CC1 (stereo not drawn) | 45.9 | 46.5 | 57.9 | 55.6 | – | 78.6 | – | 78.2 | – | > 100 | > 100 | 40.6 | 57.8 | 74.5 |
| CCOP(=O)(OCC)/C(C#N)=C/c1cnc[nH]1 | > 100 | > 100 | > 100 | > 100 | > 100 | – | > 100 | > 100 | > 100 | > 100 | > 100 | > 100 | > 100 | > 100 |
| O=C(O)c1ccc(C2SCc3nc4ccccc4n32)cc1 (stereo not drawn) | > 100 | > 100 | > 100 | > 100 | – | – | – | > 100 | > 100 | > 100 | > 100 | > 100 | > 100 | > 100 |
| OCCN1CCN2C=C(C3CCCC4N(CCO)CCN34)CCC21 (stereo not drawn) | > 100 | > 100 | > 100 | 44.9 | > 93.9 | – | – | > 100 | > 100 | > 100 | – | > 92.2 | > 75.6 | > 100 |
| Cc1nnc(N)nc1/C=C/c1c(O)ccc2ccccc12 | 44 | 87.7 | 78.7 | > 100 | 85 | > 100 | > 100 | > 100 | > 100 | 36 | > 100 | – | 35.5 | – |
| Ic1cc2c(cc1C1SCCCS1)OCO2 | > 100 | > 100 | > 100 | > 100 | > 100 | – | – | > 100 | > 100 | > 100 | – | > 100 | > 100 | > 100 |
| CCCCCC/C=C1\CCC(CN2CCOCC2)C1=O (stereo not drawn) | 25.9 | 34.2 | 37.4 | > 100 | 32.1 | – | – | 38.9 | 32.8 | 19.1 | – | 31.2 | 33.4 | 30.6 |
| Brc1ccc2c(c1)-c1nc3nc4c(cc3cc1CC2)CCc1ccc(Br)cc1-4 | > 100 | – | > 100 | > 100 | – | > 100 | > 100 | > 100 | > 100 | > 100 | – | > 100 | > 100 | > 100 |
| Nc1cc(=O)n(-c2ccccc2)c(=S)n1-c1ccccc1 | > 100 | > 100 | > 100 | > 100 | > 100 | – | – | > 100 | > 100 | > 100 | – | > 100 | > 100 | > 100 |
| COC(=O)[C@H](Cc1ccc(OC(C)(C)C)cc1)N[C@H](C)C(=O)N[C@@H](Cc1ccccc1)C(=O)OCc1ccccc1 | > 100 | > 100 | > 100 | > 100 | > 100 | – | > 100 | > 100 | > 100 | > 100 | > 100 | > 100 | – | > 100 |
| CC(=O)OC1COC(N2C(=O)C(=O)c3cc(Br)ccc32)C(OC(C)=O)C1OC(C)=O (stereo not drawn) | > 100 | > 100 | – | > 100 | > 100 | – | – | > 100 | > 100 | > 100 | – | > 100 | > 100 | > 100 |
| COc1ccccc1/C=C1\NC(=S)N(/C=C2\C(=O)Oc3ccccc3C2=O)C1=O | > 100 | > 100 | > 100 | – | > 100 | – | > 100 | > 100 | > 100 | > 100 | > 100 | 96.7 | > 100 | – |
